Values joined by “and” are separate entries in the source; they are usually repeats but may differ in a detail not shown here. Equal values may be shown once. “Also recorded” adds a separate entry of the source. Read-outs that look alike come from different tables or passages of the source.

Assay [1] has as its system physiologically induced amnesia mice. The experiment in a line: ORT with 24 h time delay (natural memory loss). As to conditions: 24 h delay; i.p. Format: in vivo. On the procedure:
Both compounds were further evaluated on a physiologic amnesic model by using ORT with 24 h time delay to induce natural memory loss in mice. The appropriate time delay causing amnesia was initially selected by varying delay times (24, 48, and 72 h) between sample and test phase that have identical and different objects, respectively. […] Therefore, 24 h was used as the time delay between sample and test phase.
FIG. 27 illustrates exploration time to familiar (F) and novel (N) objects in test phase of ORT following a time delay. Each mouse was allowed to explore an open field apparatus for 5 min in a habituation phase one day before a sample phase. In the test day, vehicle (SH) and test compounds IND8, QND8 and PNU were injected 1 h before measurement of exploration time. Each mouse was allowed to explore 2 identical objects in the sample phase for 5 min. On the next day (24 h), one of the objects was changed to a new one and the mouse was allowed to explore these objects for 5 min. The exploration time of these objects was recorded. Data are presented as means±SE, n=6-8 mice/group. **p<0.01, ***p<0.001 vs exploration time of familiar object, paired student's t-test.
The DI was calculated and compared with the control group to evaluate IND8, QND8, and PNU-282987 enhancement of cognitive function. Data are shown in FIG. 28, which illustrates discrimination index (TN−TF/TN+TF) of each compound in the test phase of ORT with time delay protocol. There was a significant difference in DI (F6,43=6.097, p<0.001, n=6-8 mice/group). **p<0.01, ***p<0.001 vs vehicle group (SH), one-way ANOVA with Fisher's LSD post hoc comparison.
The apparatus used in this experiment was the same as ORT test. This experiment was divided into 2 parts directed to dose finding and establishing mechanism of action.
For dose finding protocol, the mice were randomly divided into different treatment groups, a control group receiving a vehicle and tested groups receiving PNU-282987 at 3, 10 mg/kg, and IND8, QND8 for 10, 25 μmol/kg, single dose. They were allowed to freely explore the open field apparatus for 5 min for habituation in a day before the experiment (day 1). On the test day (day 2), the test compound was injected 1 h before the sample phase. In this phase, mice were placed in the apparatus to explore two identical objects. On the next day (day 3), one object was changed to a new one and mice were allowed to explore these objects for 5 min in the test phase. For proving cognitive enhancement mediated through α7-nAChRs, the protocol was the same as mentioned above except MLA (3 mg/kg), selective α7-nAChR antagonist, was injected 5 min before test compounds in the sample phase (day 2) to block the cognitive enhancement effect from test compounds. The dose of test compounds is selected from the effective dose from the former experiment. The exploration time of each object was recorded if the nose of mouse came within 3 cm or touched the objects. The discrimination index (DI) was calculated by using (TN−TF)/(TN+TF); TN and TF represented exploration time of new and familiar objects, respectively.

Assay [2] deals with T1, α4β2-nAChRs (Homo sapiens, UniProt P17787+P43681).
T1 construct: expressed in transfected cells; host or cells: HEKtsA201 cells co-expressing TN-XXL
The assay can be described thus: Intact cell competitive radioligand binding assay ([3H]-(±)-epibatidine, SPA), LGIC-CNiFERs. As to conditions: 10 μM, more than 50% radioligand displacement.

The target in assay [3] is T2, 5HT3A receptors (Mus musculus, UniProt P23979).
T2 construct: expressed in transfected cells; host or cells: HEK293 cells co-expressing TN-XXL
T2 sequence (P23979 24-489): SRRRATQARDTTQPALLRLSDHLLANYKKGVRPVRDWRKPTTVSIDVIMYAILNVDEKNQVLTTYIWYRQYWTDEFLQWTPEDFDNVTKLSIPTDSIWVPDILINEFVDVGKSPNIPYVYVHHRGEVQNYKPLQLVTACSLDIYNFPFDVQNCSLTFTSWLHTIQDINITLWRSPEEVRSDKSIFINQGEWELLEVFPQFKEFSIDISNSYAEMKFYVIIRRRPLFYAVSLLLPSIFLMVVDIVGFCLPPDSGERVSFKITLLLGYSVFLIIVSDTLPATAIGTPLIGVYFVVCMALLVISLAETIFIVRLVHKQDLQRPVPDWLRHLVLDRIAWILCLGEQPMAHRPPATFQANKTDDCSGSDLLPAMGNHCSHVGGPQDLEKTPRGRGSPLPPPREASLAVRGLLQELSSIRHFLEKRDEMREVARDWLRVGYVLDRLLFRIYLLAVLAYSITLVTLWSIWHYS
The experiment in a line: Intact cell competitive radioligand binding assay ([3H]-granisetron, SPA), LGIC-CNiFERs. As to conditions: for Kd: Kd ± SD, 5HT3A, >10 = did not pass initial screen at 10 μM.

In assay [4] the target is T2, 5HT3A receptors. The assay can be described thus: FRET functional assay (agonist/antagonist) using LGIC-CNiFERs. Format: cell-based. The following applies: for Kd: competitive antagonist (^C), >10 = did not pass initial screen, vs 5-HT, read-out: Antagonist KA ± SD, 5HT3A; for Functional properties at 5HT3A receptors (agonist / antagonist, type): functional screening and characterization; for EC50: read-out: Agonist EC50 ± SD, 5HT3A. On the procedure:
(§1) Initially, the agonist properties of tested compounds were assessed directly. […] All α7-nAChR functional assays were performed in the presence of PNU-120596, an α7-nAChR positive allosteric modulator (PAM), to increase signal and delay the sensitization state of α7-nAChRs enabling the measurement of more prolonged FRET signals.^29 Compounds having agonist responses of >0.20 were determined for EC50, and compounds having inhibition fraction of >0.50 were determined for KA.^25 EC50>13.3 μM and KA>10 μM which are a screening concentration for agonist and antagonist, respectively were reported compounds not taken for further in the screening of receptor occupation and responses.
(§2) Agonist and antagonist elicited responses were characterized using the above CNiFER cell expressing Cys-loop ligand-gated ion channel (LGIC) receptors. […] A 96-well black, clear-bottom microplate (Greiner bio-one, Germany) was coated with poly-D-lysine (Sigma-Aldrich, St. Louis, Mo.) 50 μL/well for 30 min and washed out with Phosphate-Buffered Saline (PBS) (Corning, Cellgro, Manassas, Va.) before plating the cells. After plating and incubation at 37° C. for 1 day, the media was replaced with 100 μL of artificial cerebrospinal fluid (aCSF: 121 mM NaCl, 5 mM KCl, 26 mM NaHCO3, 1.2 mM NaH2PO4H2O, 10 mM glucose, 2.4 mM CaCl2, 1.3 mM MgSO4, 5 mM HEPES, pH 7.4) for 4032 and 5HT3A receptors, whereas 10 μM PNU-120596 (Tocris Bioscience, Bristol, UK) in aCSF with 30 min incubation at 37° C. was used for α7-nAChR. The tested compounds were prepared in aCSF for all receptors except α7-nAChR, where 10 μM PNU-120596, a positive allosteric modulator (PAM) was used. The prepared compounds were added in a separate 96-well polypropylene plate (Costar, Corning, N.Y.). Experiments were conducted at 37° C. using 436-nm excitation. Emitted light was collected at 485 nm and 528 nm. Basal fluorescence was recorded for 30 s, followed by addition of 50 μL of ligand (first addition). Measurements were made at 3.84 s intervals for 2 min to measure the agonistic effect. […] Agonist and antagonist properties were sequentially screened at the final concentration of 13.3 and 10 μM, respectively, which differed from the screening concentration from intact cell binding assay (10 μM).

In assay [5] the target is T1, α4β2-nAChRs. The description is as above. Format: cell-based. The following applies: for Functional properties at α4β2-nAChRs (agonist / antagonist, type): functional screening and characterization. On the procedure: as §1, §2
In another assay the target is T3, α7-nAChRs (Homo sapiens, UniProt P36544).
T3 construct: expressed in transfected cells; host or cells: HEKtsA201 cells co-expressing TN-XXL
The description is as above. As to conditions: for EC50: in presence of 10 μM PNU-120596, * partial agonist, >10 = did not pass initial screen, read-out: Agonist EC50 ± SD, α7. Format: cell-based. On the procedure:
as §1, §2

The target of assay [6] is α7/5HT3A chimera receptor (hα7/m5HT3A), used for α7-nAChRs (UniProt P23979+P36544, M226I/T225I). The experiment in a line: Intact cell competitive radioligand binding assay ([3H]-(±)-epibatidine, SPA), LGIC-CNiFERs. As to conditions: for Kd: read-out: Kd ± SD, α7-nAChRs, >10 = did not pass initial screen at 10 μM.
Where [7] appears, read: 10 μM, more than 50% radioligand displacement.
Setting [8] is: Antagonist KA ± SD, α4β2, competitive antagonist (^C), >10 = did not pass initial screen, vs (±)-epibatidine.
[9] abbreviates: read-out: Antagonist KA ± SD, α4β2, non-competitive.

As for `CCN1C[C@]2(COC(=O)c3ccccc3N3C(=O)C[C@H](C)C3=O)CC[C@H](OC)[C@@]34[C@@H]5C[C@H]6[C@H](OC)[C@@H]5[C@](O)(C[C@@H]6OC)[C@@](O)([C@@H](OC)[C@H]23)[C@@H]14` [MLA, methyllycaconitine, reference compound], the “Discrimination index / cognition enhancement, ORT time delay vs control group” value in assay [1] was “does not enhance episodic memory; also recorded: did not have cognitive enhancement effect”.

The term EC50 denotes the concentration at which the effect is half-maximal. Turning to `c1ccc(-c2ccc(-c3cn(CCN4CCCCC4)nn3)cc2)cc1` [PPRD7, 1-(2-(4-(Biphenyl-4-yl)-1,2,3-triazol-1-yl)ethyl)piperidine], the “Initial screening for binding to α4β2-nAChRs” value at α4β2-nAChRs [2] is “cannot bind to all tested LGIC receptors”. The “Initial screening for binding to 5HT3A receptors” value at 5HT3A receptors [3] (setting [7]) is listed as “cannot bind to all tested LGIC receptors”. For the same compound, the Kd on 5HT3A receptors [4] was above 10000 nM; at α4β2-nAChRs [5] (read-out: Antagonist KA ± SD, α4β2), above 10000 nM. For the same compound, the “Functional properties at 5HT3A receptors (agonist / antagonist, type)” value on 5HT3A receptors [4] is listed as “did not pass the functional screening”. In addition, the 50% effective concentration (EC50) at 5HT3A receptors [4] and at α7-nAChRs was above 10000 nM throughout. The “Functional properties at α4β2-nAChRs (agonist / antagonist, type)” value at α4β2-nAChRs [5] is “did not pass the functional screening”. For the same compound, on α7-nAChRs (functional screening and characterization), the “Functional properties at α7-nAChRs (agonist / antagonist)” value was “did not pass the functional screening”. In addition, the “Initial screening for binding to α7-nAChRs” value in assay [6] (setting [7]) is “cannot bind to all tested LGIC receptors”.

Regarding `COc1ccc2cc(-c3cn(C4CN5CCC4CC5)nn3)ccc2c1` (stereo not shown) [QND6, 3-(4-(6-Methoxynaphthalen-2-yl)-1,2,3-triazol-1-yl)quinuclidine], the “Initial screening for binding to α4β2-nAChRs” value on α4β2-nAChRs [2] was “associate well with α4β2-nAChRs”. The Kd was above 10000 nM on 5HT3A receptors [4], 7000 ± 4500 nM at α4β2-nAChRs [5] (setting [8]) and 6200 ± 400 nM on α4β2-nAChRs [5] (setting [9]). In addition, the EC50 at 5HT3A receptors [4] was above 10000 nM; on α7-nAChRs it was 22000 ± 6000 nM. In addition, at α4β2-nAChRs [5], the “Functional properties at α4β2-nAChRs (agonist / antagonist, type)” value is “mix-competitive antagonist”.

As for `Cn1ccc2cc(-c3cn(C4CN5CCC4CC5)nn3)ccc21` (stereo not shown) [QND9, 3-(4-(1-Methyl-indol-5-yl)-1,2,3-triazol-1-yl)quinuclidine], at α4β2-nAChRs [2], the “Initial screening for binding to α4β2-nAChRs” value is “associate well with α4β2-nAChRs”. Moreover, the EC50 at 5HT3A receptors [4] came out at 1380 ± 520 nM; on α7-nAChRs, 1000 ± 40 nM. Besides, the values for the Kd (on α4β2-nAChRs [5] (setting [8]); at α4β2-nAChRs [5] (setting [9]); in assay [6]) were 5200 ± 1200 nM, 6500 ± 200 nM and 1880 nM, respectively. Moreover, at α4β2-nAChRs [5], the “Functional properties at α4β2-nAChRs (agonist / antagonist, type)” value is given as “mix-competitive antagonist”. For the same compound, in assay [6], the “Fold increase of Kd (α7-nAChRs) compared to IND8” value was 15 fold.

As to `c1ccc2c(-c3cn(C4CN5CCC4CC5)nn3)c[nH]c2c1` (stereo not shown) [QND12, 3-(4-(Indol-3-yl)-1,2,3-triazol-1-yl)quinuclidine], the Kd on 5HT3A receptors [3] was 20 to 50 nM and 20 nM; at α4β2-nAChRs [5] (setting [8]), above 10000 nM; in assay [6], 920 nM. The 50% effective concentration (EC50) on 5HT3A receptors [4] is 340 ± 130 nM; at α7-nAChRs, 450 ± 140 nM. Further, the “Fold increase of Kd (α7-nAChRs) compared to IND8” value in assay [6] came to 9 fold.

As to `COC(=O)c1cc(-c2cn(C3CN4CCC3CC4)nn2)ccc1N` (stereo not shown) [QND15, Methyl 2-amino-5-(1-(quinuclidin-3-yl)-1H-1,2,3-triazol-4-yl)benzoate], the Kd on 5HT3A receptors [3] was 40 nM; on α4β2-nAChRs [5] (setting [8]), 11600 ± 1000 nM; in assay [6] it was 3610 nM. Also, the “Functional properties at 5HT3A receptors (agonist / antagonist, type)” value on 5HT3A receptors [4] is on record as 5HT3A receptor agonist properties. In addition, the EC50 on 5HT3A receptors [4] came to 260 ± 30 nM; on α7-nAChRs it was 1340 nM. The “Functional properties at α4β2-nAChRs (agonist / antagonist, type)” value at α4β2-nAChRs [5] is on record as “competitive antagonism”. The “Fold lower affinity for α7-nAChRs than QND2” value in assay [6] worked out at 10 fold.

The values are drawn from patent US20180244653A1, “SELECTIVE ALPHA-7 NICOTINIC RECEPTOR AGONISTS AND METHODS FOR MAKING AND USING THEM” (THE REGENTS OF THE UNIVERSITY OF CALIFORNIA, priority 2015, published 2018).
